Test results: US12594339B2, “Lipid prodrugs of JAK inhibitors and uses thereof” (Seaport Therapeutics, Inc., priority 2019, dated 2026)

How the values were obtained:
[1] = Lymphatic transport assay in mesenteric lymph-duct cannulated rats; type: in vivo, rat; details: total tofacitinib related compound (lymph hydrolysed before assay), intraduodenal infusion, anaesthetised mesenteric lymph-duct cannulated rats, lymph collected up to 8 h
Description: In order to assess the lymphatic transport of disclosed lipid prodrugs in rats, the mesenteric lymph ducts of the rats used in this study were cannulated to allow continual collection of mesenteric lymph. Lipid formulations containing the compound of interest were then administered to the animals, lymph was collected, and drug concentrations in the lymph samples were quantified.
Lipid-based formulations of the compounds of the invention or control compounds were prepared as previously described (Trevaskis, N. L. et al., Pharmaceutical Research, 2005, 22(11), 1863-1870, WO 2016/023082, and WO 2017/041139, hereby incorporated by reference).
In brief, either 1 or 2 mg of test prodrug, 40 mg oleic acid and 25 mg Tween 80 were mixed in a glass vial and incubated at 37° C. for 12-18 h to equilibrate. An aqueous phase consisting of 5.6 ml phosphate buffered saline (PBS, pH 7.4) was subsequently added to the lipid phase (tofacitinib was dissolved in PBS for the preparation of tofacitinib-containing formulations) and the formulation emulsified by ultrasonication with a Misonix XL 2020 ultrasonic processor (Misonix, Farmingdale, NY, USA) equipped with a 3.2-mm microprobe tip running at 30% of the maximal amplitude of 240 μm and a frequency of 20 kHz for 2 min at room temperature. Doses for administering to more than one animal can be prepared in one batch by suitably increasing the quantities given above. Drug/prodrug concentrations in all formulations were verified using HPLC-MS.
Male Sprague-Dawley (SD) rats were selected for the lymphatic transport studies. Rats (typically 240-320 g) were maintained on a standard diet and fasted overnight with free access to water prior to experiments.
Anesthetized rats were placed on a heated pad at 37° C. and cannulas inserted into the duodenum (for formulation administration and rehydration), mesenteric lymph duct (for lymph collection), and carotid artery (in cases where blood collection was conducted). Post-surgery, rats were re-hydrated for 0.5 h via intraduodenal infusion of normal saline at 2.8 mL/h. The lipid formulations were infused into the duodenum at 2.8 mL/h for 2 h after which, normal saline was infused at 2.8 mL/h for the remainder of the experiment. Lymph was continuously collected for up to 8 h into pre-weighed Eppendorf tubes containing 10 μL of 1,000 IU/mL heparin. The collection tubes were changed hourly and lymph flow was measured gravimetrically. Aliquots of hourly lymph samples were stored at −20° C. prior to assay.
For most compounds, drug concentration in lymph is expressed as total drug and includes free drug and drug associated with different glycerides. Lymph samples were first treated with a lipase or other appropriate conditions to liberate free active agent prior to measurement of active agent levels in the lymph. Treatment with a lipase or other hydrolysis conditions liberates free active agent from any corresponding re-esterified glycerides. Porcine pancreatic lipase is appropriate for this purpose. Alternatively, hydrolysis with 0.5 M NaOH may be used.
For certain compounds, drug concentration was measured for the intact lipid prodrug specifically, without exposing the lymph samples to hydrolysis conditions.
Transport of compounds into lymph during each hourly collection period was calculated from the product of the volume of lymph collected and the measured concentrations in lymph. For fluorescent or fluorescently-labelled compounds, the concentrations of total compound may be measured by fluorescence spectroscopy without hydrolysis.
Table 5 summarizes lymphatic transport of total tofacitinib related compound (% of administered dose) following intraduodenal infusion to anaesthetised, mesenteric lymph-duct cannulated rats. Data are presented as mean±SD when n≥3 or mean± range when n=2. […]

[2] = system: plasma supplemented with lipoprotein lipase (LPL); test: In vitro release of therapeutic agent from prodrugs in plasma supplemented with lipoprotein lipase; type: in vitro ADME; details: rat and/or human plasma supplemented with LPL; for In vitro hydrolysis profile: conversion to monoglyceride form / In vitro hydrolysis profile: further conversion products: 37° C., 0-180 min
Description: In order to probe the release of free drug from TG prodrugs in the systemic circulation, prodrugs are incubated with plasma (rat, mouse, dog, pig or human) supplemented with lipoprotein lipase (LPL, 200 IU/ml). LPL is a key enzyme required for the hydrolysis of lipoprotein associated TG in the systemic circulation and is therefore expected to be a key contributor to lipolysis of the re-esterified drug-TG construct in plasma, largely via liberation of fatty acids in the sn-1 and the sn-3 position of the TG-mimetic, prior to drug release from the 2′ position via esterase hydrolysis. […] is tethered to the luminal surface of vascular endothelial cells under physiological conditions. In the current in vitro studies, plasma is therefore supplemented with LPL to better reflect the in vivo situation.
To start hydrolysis, 10 μl of LPL solution (10,000 IU/ml) was added to a mixture of 10 μl of prodrug solution (1 mg/ml dissolved in acetonitrile) and 500 μl of blank plasma. The mixture was incubated at 37° C. Samples (20 μl) of the incubation solution were taken at 0, 5, 15, 30, 60, 90, 120 and 180 minutes post-incubation and added to 180 μl of MeCN to stop lipolysis. The mixture was vortexed and centrifuged at 4500×g for 5 minutes to precipitate proteins prior to analysis. The supernatant was analyzed by HPLC-MS/MS for the potential products (MG form, acid form, and free drug) of prodrug hydrolysis.
The in vitro hydrolysis profile of selected prodrug compounds was determined in rat and/or human plasma supplemented with LPL. […] The acid intermediate was not observed for prodrug I-5. The acid intermediates are believed to have the structures shown in Table 6, below, based on HPLC-MS data.

[3] = biological target: T1, porcine pancreatic lipase (Sus scrofa, UniProt P00591); test: In vitro hydrolysis by porcine pancreatic lipase in simulated intestinal micellar solution; type: in vitro ADME; details: for In vitro hydrolysis: acid intermediates: HPLC-MS; for In vitro hydrolysis: conversion to monoglyceride form / In vitro hydrolysis: fate of the monoglyceride: simulated intestinal micellar solution, 37° C., 0-180 min
T1 construct: dispersion of 1 g porcine pancreatin in 5 ml of lipolysis buffer; from tissue; host or cells: porcine pancreatin (pancreas extract), supernatant after centrifugation
T1 sequence (P00591 1-450): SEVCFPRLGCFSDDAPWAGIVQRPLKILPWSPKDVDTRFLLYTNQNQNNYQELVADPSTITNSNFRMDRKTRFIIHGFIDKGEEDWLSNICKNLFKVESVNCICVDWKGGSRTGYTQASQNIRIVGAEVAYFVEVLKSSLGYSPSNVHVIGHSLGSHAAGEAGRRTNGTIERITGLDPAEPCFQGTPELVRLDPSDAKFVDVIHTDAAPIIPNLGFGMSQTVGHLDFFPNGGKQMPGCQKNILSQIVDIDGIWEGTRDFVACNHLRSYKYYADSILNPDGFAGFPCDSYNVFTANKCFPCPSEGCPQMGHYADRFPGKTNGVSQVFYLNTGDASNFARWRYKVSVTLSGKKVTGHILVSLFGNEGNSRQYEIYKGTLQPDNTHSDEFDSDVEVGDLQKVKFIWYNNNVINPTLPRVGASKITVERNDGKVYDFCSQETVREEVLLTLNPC
T1 sequence (P02703 23-112 partner): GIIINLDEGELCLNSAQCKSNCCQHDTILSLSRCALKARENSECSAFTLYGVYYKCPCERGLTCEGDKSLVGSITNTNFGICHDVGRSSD
Description: Hydrolysis of test compounds in vitro was performed via incubation with porcine pancreatic lipase. This provides a more reproducible source of pancreatic enzymes, facilitates enhanced experimental throughput, and is also a greater challenge than collected rat enzymes (as described below, since enzyme activity in rat intestinal fluid is low). Briefly, pancreatic lipase solution was prepared prior to the hydrolysis experiment by dispersion of 1 g porcine pancreatin in 5 ml of lipolysis buffer and 16.9 μL of 0.5 M NaOH. The suspension was mixed well and centrifuged at 3500 rpm for 15 minutes at 5° C. to provide a supernatant. An amount of 1000 mL of lipolysis buffer was prepared with 0.474 g of tris-maleate (2 mM), 0.206 g of CaCl2·H2O (1.4 mM) and 8.775 g of NaCl (150 mM) adjusted with NaOH to pH 6.5. To assess the potential for prodrug hydrolysis in the intestine, 20 μL of prodrug solution (1 mg/mL dissolved in acetonitrile), 900 μL of simulated intestinal micellar solution [prepared with 0.783 g of NaTDC (3 mM) and 0.291 g of phosphatidyl choline (0.75 mM) in 500 mL lipolysis buffer] and 100 μL of enzyme solution were incubated at 37° C. 20 μL samples of the incubation solution were taken at 0, 5, 10, 15, 30, 60, 90, 120 and 180 minutes post incubation and added to 180 μL of MeCN to stop lipolysis. The mixture was vortexed and centrifuged at 5000 rpm for 5 minutes to precipitate proteins prior to analysis. The supernatant was analyzed by HPLC-MS for residual compound concentrations, and the potential products of compound hydrolysis analyzed.
On incubation with digestive enzymes, the monoglyceride forms of the prodrugs are formed very rapidly. The stability in simulated intestinal conditions is therefore better assessed by the stability of the monoglyceride form that is generated by the initial digestion process. The monoglyceride form should remain intact to be absorbed and re-esterified in the enterocyte prior to entry into the lymphatics. A comparison of the stability profiles of the monoglyceride forms of test compounds during in vitro incubation with porcine pancreatic lipase (or freshly collected rat bile and pancreatic fluid (BPF), as described below) was used to evaluate the influence of linker structure on the stability of the monoglyceride intermediates.

| SMILES | Cumulative lymphatic transport % dose [1] | In vitro hydrolysis profile: conversion to monoglyceride form [2] | In vitro hydrolysis profile: further conversion products [2] | In vitro hydrolysis: acid intermediates [3] | In vitro hydrolysis: conversion to monoglyceride form [3] | In vitro hydrolysis: fate of the monoglyceride [3] | In vitro hydrolysis profile: acid intermediate ([2]; HPLC-MS) |
| --- | --- | --- | --- | --- | --- | --- | --- |
| CCCCCCCCCCCCCCCC(=O)OCC(COC(=O)CCCCCCCCCCCCCCC)OC(=O)CC(C)CCCCCCCC(C)C(=O)n1ccc2c(N(C)[C@H]3CN(C(=O)CC#N)CC[C@H]3C)ncnc21 (stereo partly drawn) [I-6, 2-((12-(4-(((3R,4R)-1-(2-cyanoacetyl)-4-methylpiperidin-3-yl)(methyl)amino)-7H-pyrrolo[2,3-d]pyrimidin-7-yl)-3,11-dimethyl-12-oxododecanoyl)oxy)propane-1,3-diyl dipalmitate] | B (lymphatic transport assay result between 1% and 10% (1%-10%)) | rapidly converted into their monoglyceride form | further conversion to tofacitinib and an acid intermediate | not observed | rapidly converted to the prodrug's monoglyceride form | converted to free parent tofacitinib over time |  |
| CCCCCCCCCCCCCCCC(=O)OCC(COC(=O)CCCCCCCCCCCCCCC)OC(=O)CC(C)CC(=O)OC(C)n1ccc2c(N(C)[C@H]3CN(C(=O)CC#N)CC[C@H]3C)ncnc21 (stereo partly drawn) [I-5, 1-(1,3-bis(palmitoyloxy)propan-2-yl) 5-(1-(4-(((3R,4R)-1-(2-cyanoacetyl)-4-methylpiperidin-3-yl)(methyl)amino)-7H-pyrrolo[2,3-d]pyrimidin-7-yl)ethyl) 3-methylpentanedioate] | D (lymphatic transport assay result of less than 0.05% (<0.05%)) | rapidly converted into their monoglyceride form | further conversion to tofacitinib and an acid intermediate | not observed | rapidly converted to the prodrug's monoglyceride form | converted to free parent tofacitinib over time | not observed |
